# Measured values: patent US20260130933A1, “PHARMACEUTICAL COMPOSITION FOR PREVENTION OR TREATMENT OF NEPHROPATHY AND/OR DIABETES MELLITUS, COMPRISING ENAVOGLIFLOZIN” (DAEWOONG PHARMACEUTICAL CO., LTD., priority 2022, published 2026)
# Assay: Example 2: phase 3 trial, enavogliflozin 0.3 mg vs dapagliflozin 10 mg once a day for 24 weeks added to metformin in patients with type 2 diabetes (same efficacy, exploratory and safety endpoints)
# Format: in vivo, human
# Method: Subjects who met the inclusion/exclusion criteria were administered a placebo of the clinical trial drug under single-blind (subject blinding) conditions during a 2-week run-in period while continuing to receive metformin. […] The randomized subjects were administered two tablets of the clinical trial drug for each administration group once a day, and then visited the institution at weeks 6, 12, 18, and 24 during the 24-week administration period to conduct efficacy and safety evaluations.
# • 1. Change in HbA1c at week 24 after administration of clinical trial drug compared to Visit 2 (randomization)
# • 1. Change in HbA1c at each time point of weeks 6, 12, and 18 after administration of clinical trial drug compared to Visit 2 (randomization) • 2. Change in FPG at each time point of weeks 6, 12, 18, and 24 after administration of clinical trial drug compared to Visit 2 (randomization) • 3. Proportion of subjects achieving HbA1c<7% at each time point of weeks 6, 12, 18, and 24 after administration of clinical trial drug • 4. Proportion of subjects achieving HbA1c<6.5% at each time point of weeks 6, 12, 18, and 24 after administration of clinical trial drug • 5. Proportion of subjects achieving therapeutic response (HbA1c change (HbA1c at Visit 2-HbA1c at each evaluation time point)>0.5% or HbA1c<7% at each evaluation time point compared to Visit 2 (randomization)) at each time point of weeks 6, 12, 18 and 24 after administration of clinical trial drug
# • 1. Change in fasting c-peptide at each time point of weeks 6, 12, 18, and 24 after administration of clinical trial drug compared to Visit 2 (randomization) • 2. Change in body weight at each time point of weeks 6, 12, 18, and 24 after administration of clinical trial drug compared to Visit 2 (randomization) • 3. Change in fasting lipid concentration (total cholesterol, LDL-C, HDL-C, and triglycerides) at each time point of weeks 6, 12, 18, and 24 after administration of clinical trial drug compared to Visit 2 (randomization) • 4. Changes in systolic or diastolic blood pressure at each time point of weeks 6, 12, 18, and 24 after administration of clinical trial drug compared to Visit 2 (randomization) • 5. Changes in β-cell function and insulin resistance measured by HOMA-β and HOMA-IR at each time point of weeks 6, 12, 18, and 24 after administration of clinical trial drug compared to Visit 2 (randomization) • 6. Changes in renal function-related indicators (UACR, UGCR) measured by UACR at each time point of weeks 6, 12, 18, and 24 after administration of clinical trial drug compared to Visit 2 (randomization) • 7. Changes in obesity-related indicators (adiponectin, leptin) at each time point of weeks 6, 12, 18, and 24 after administration of clinical trial drug compared to Visit 2 (randomization)
# [1] = Baseline, modified per-protocol set 1, enavogliflozin 0.3 mg, dapagliflozin 10 mg
# [2] = Baseline, per-protocol set, enavogliflozin 0.3 mg, dapagliflozin 10 mg
smiles,measurement,setting,value
"CCOc1ccc(Cc2cc([C@@H]3O[C@H](CO)[C@@H](O)[C@H](O)[C@H]3O)ccc2Cl)cc1 [Dapagliflozin, reference compound]",Incidence of serious adverse drug reactions,24 weeks,7 case
same,"Adiponectin, Mean (SD)","Baseline, PPS",6.6 µg/mL
same,"Adiponectin, Median","Baseline, PPS",5.94 µg/mL
same,"HOMA-IR, Mean (SD)","Baseline, PPS",3.85
same,"HOMA-IR, Median","Baseline, PPS",3.05
same,"HOMA-β, Mean (SD)","Baseline, PPS",44.44
same,"HOMA-β, Median","Baseline, PPS",38.75
same,"Leptin, Mean (SD)","Baseline, PPS",11.76 ng/mL
same,"Leptin, Median","Baseline, PPS",8.32 ng/mL
same,"UACR, Mean (SD)","Baseline, PPS",57420 mg/kg
same,"UACR, Median","Baseline, PPS",15.50 g/kg
same,"UGCR, Mean (SD)","Baseline, PPS",1.83 mg/mg
same,"UGCR, Median","Baseline, PPS",0.15 mg/mg
same,"HDL-C, Mean (SD)","Baseline, mPPS1",46.90(9.17) mg/dL
same,"HDL-C, Median","Baseline, mPPS1",46.00 mg/dL
same,"LDL-C, Mean (SD)","Baseline, mPPS1",76.16(26.27) mg/dL
same,"LDL-C, Median","Baseline, mPPS1",75.00 mg/dL
same,"Triglycerides, Mean (SD)","Baseline, mPPS1",132.92(75.63) mg/dL
same,"Triglycerides, Median","Baseline, mPPS1",115.00 mg/dL
same,"Diastolic blood pressure, Mean (SD)","Baseline, mPPS2",75.92 mmHg
same,"Diastolic blood pressure, Median","Baseline, mPPS2",75.00 mmHg
same,"Systolic blood pressure, Mean (SD)","Baseline, mPPS2",127.44(14.12) mmHg
same,"Systolic blood pressure, Median","Baseline, mPPS2",127.00 mmHg
same,"fasting Total cholesterol, Mean (SD)",[1],137.87(26.64) mg/dL
same,"fasting Total cholesterol, Median",[1],139.00 mg/dL
same,"FPG, Mean (SD)",[2],149.33 mg/dL
same,"FPG, Median",[2],142.00 mg/dL
same,"HbA1c, Mean (SD)",[2],7.68%
same,"HbA1c, Median",[2],7.49%
same,"body weight, Mean (SD)",[2],70.52(11.81) kg
same,"body weight, Median",[2],69.70 kg
same,"fasting c-peptide, Mean (SD)",[2],0.74(0.23) ng/mL
same,"fasting c-peptide, Median",[2],0.71 ng/mL
same,"Adiponectin change from baseline, ANCOVA LS mean (SE)","Week 6, PPS",0.8 µg/mL
same,"Adiponectin change from baseline, Mean (SD)","Week 6, PPS",0.77 µg/mL
same,"Adiponectin change from baseline, Median","Week 6, PPS",0.51 ng/mL
same,"Adiponectin, Mean (SD)","Week 6, PPS",7.4 µg/mL
same,"Adiponectin, Median","Week 6, PPS",6.36 µg/mL
same,"HOMA-IR change from baseline, ANCOVA LS mean (SE)","Week 6, PPS",−1.31
same,"HOMA-IR change from baseline, Mean (SD)","Week 6, PPS",−1.46
same,"HOMA-IR change from baseline, Median","Week 6, PPS",−1.03
same,"HOMA-IR, Mean (SD)","Week 6, PPS",2.34
same,"HOMA-IR, Median","Week 6, PPS",2.07
same,"HOMA-β change from baseline, ANCOVA LS mean (SE)","Week 6, PPS",−1.79
same,"HOMA-β change from baseline, Mean (SD)","Week 6, PPS",−2.83
same,"HOMA-β change from baseline, Median","Week 6, PPS",1.10
same,"HOMA-β, Mean (SD)","Week 6, PPS",41.10
same,"HOMA-β, Median","Week 6, PPS",42.20
same,"Leptin change from baseline, ANCOVA LS mean (SE)","Week 6, PPS",-1.62 ng/mL
same,"Leptin change from baseline, Mean (SD)","Week 6, PPS",-1.61 ng/mL
same,"Leptin change from baseline, Median","Week 6, PPS",-1.46 ng/mL
same,"Leptin, Mean (SD)","Week 6, PPS",9.85 ng/mL
same,"Leptin, Median","Week 6, PPS",5.51 ng/mL
same,"UACR change from baseline, ANCOVA LS mean (SE)","Week 6, PPS",8.13 g/kg
same,"UACR change from baseline, Mean (SD)","Week 6, PPS",4490 mg/kg
same,"UACR change from baseline, Median","Week 6, PPS",0.00 g/kg
same,"UACR, Mean (SD)","Week 6, PPS",62950 mg/kg
same,"UACR, Median","Week 6, PPS",13.90 g/kg
same,"UGCR change from baseline, ANCOVA LS mean (SE)","Week 6, PPS",50.10 mg/mg
same,"UGCR change from baseline, Mean (SD)","Week 6, PPS",47.54 mg/mg
same,"UGCR change from baseline, Median","Week 6, PPS",42.30 mg/mg
same,"UGCR, Mean (SD)","Week 6, PPS",48.64 mg/mg
same,"UGCR, Median","Week 6, PPS",43.08 mg/mg
same,"HDL-C change from baseline, ANCOVA LS mean (SE)","Week 6, mPPS1",1.60(0.61) mg/dL
same,"HDL-C change from baseline, Mean (SD)","Week 6, mPPS1",1.94(5.62) mg/dL
same,"HDL-C change from baseline, Median","Week 6, mPPS1",1.00 mg/dL
same,"HDL-C, Mean (SD)","Week 6, mPPS1",48.83(10.55) mg/dL
same,"HDL-C, Median","Week 6, mPPS1",48.50 mg/dL
same,"LDL-C change from baseline, ANCOVA LS mean (SE)","Week 6, mPPS1",4.20(1.95) mg/dL
same,"LDL-C change from baseline, Mean (SD)","Week 6, mPPS1",4.87(19.92) mg/dL
same,"LDL-C change from baseline, Median","Week 6, mPPS1",3.00 mg/dL
same,"LDL-C, Mean (SD)","Week 6, mPPS1",81.20(28.87) mg/dL
same,"LDL-C, Median","Week 6, mPPS1",76.50 mg/dL
same,"Triglycerides change from baseline, ANCOVA LS mean (SE)","Week 6, mPPS1",−10.14(7.09) mg/dL
same,"Triglycerides change from baseline, Mean (SD)","Week 6, mPPS1",−11.86(54.93) mg/dL
same,"Triglycerides change from baseline, Median","Week 6, mPPS1",-2.00 mg/dL
same,"Triglycerides, Mean (SD)","Week 6, mPPS1",120.41(53.12) mg/dL
same,"Triglycerides, Median","Week 6, mPPS1",104.50 mg/dL
same,"Diastolic blood pressure change from baseline, ANCOVA LS mean (SE)","Week 6, mPPS2",−1.47 mmHg
same,"Diastolic blood pressure change from baseline, Mean (SD)","Week 6, mPPS2",−1.10 mmHg
same,"Diastolic blood pressure change from baseline, Median","Week 6, mPPS2",0.00 mmHg
same,"Diastolic blood pressure, Mean (SD)","Week 6, mPPS2",74.57 mmHg
same,"Diastolic blood pressure, Median","Week 6, mPPS2",75.00 mmHg
same,"Systolic blood pressure change from baseline, ANCOVA LS mean (SE)","Week 6, mPPS2",−2.71(1.06) mmHg
same,"Systolic blood pressure change from baseline, Mean (SD)","Week 6, mPPS2",−1.98(11.14) mmHg
same,"Systolic blood pressure change from baseline, Median","Week 6, mPPS2",−1.50 mmHg
same,"Systolic blood pressure, Mean (SD)","Week 6, mPPS2",125.24(13.01) mmHg
same,"Systolic blood pressure, Median","Week 6, mPPS2",126.00 mmHg
same,"Adiponectin change from baseline, ANCOVA LS mean (SE)","Week 12, PPS",1.02 µg/mL
same,"Adiponectin change from baseline, Mean (SD)","Week 12, PPS",1.08 µg/mL
same,"Adiponectin change from baseline, Median","Week 12, PPS",0.83 ng/mL
same,"Adiponectin, Mean (SD)","Week 12, PPS",7.76 µg/mL
same,"Adiponectin, Median","Week 12, PPS",6.53 µg/mL
same,"HOMA-IR change from baseline, ANCOVA LS mean (SE)","Week 12, PPS",−1.60
same,"HOMA-IR change from baseline, Mean (SD)","Week 12, PPS",−1.74
same,"HOMA-IR change from baseline, Median","Week 12, PPS",−1.27
same,"HOMA-IR, Mean (SD)","Week 12, PPS",2.17
same,"HOMA-IR, Median","Week 12, PPS",1.89
same,"HOMA-β change from baseline, ANCOVA LS mean (SE)","Week 12, PPS",8.75
same,"HOMA-β change from baseline, Mean (SD)","Week 12, PPS",8.97
same,"HOMA-β change from baseline, Median","Week 12, PPS",4.55
same,"HOMA-β, Mean (SD)","Week 12, PPS",53.77
same,"HOMA-β, Median","Week 12, PPS",45.50
